Data on one substance can be found in article PMC2873402, “Discovery of High-Affinity Protein Binding Ligands – Backwards” (PLoS ONE, 2010).

The target of one experiment is AKT1 (Homo sapiens, UniProt P31749). Briefly: Protein array (ProtoArray), binding to AKT1. More on the design: purchased Life Technologies. To be noted: 200 nM synbody, fluorescently labeled streptavidin. From the text:
To test this approach, a candidate synbody was constructed using two peptides, […] and […], referred to as peptides 1 and 2, respectively. The sequences of the first 17 aa of these peptides were generated using a random number generator and three constant positions on the C-terminus that served as a spacer between the linker scaffold and the active portion of each peptide. A divergent synthetic method was used in which peptide 1 was synthesized from C to N terminus from the α-amine of lysine and peptide 2 was synthesized from the ε-amine of lysine (Figure 2A, Materials and Methods S1, Figure S1). The synbody was tagged on the C-terminus with biotin and screened against a Life Technologies ProtoArray™. ProtoArrays are nitrocellulose coated slides onto which 8,303 recombinant human proteins have been spotted. After a 2-hour incubation, the array was washed and bound synbody was detected using fluorescently labeled streptavidin. […]
Synbodies were screened on an Invitrogen ProtoArray™ (Life Technologies, Carlsbad, CA, USA) detected with Alexa-555 labeled streptavidin (Life Technologies), and scanned using a Perkin Elmer ProScan Array HTP. The spots were analyzed using GenePix Pro (Molecular Devices, Sunnyvale, CA, USA) and data were processed using Genespring GX (Agilent Technologies, Santa Clara, CA, USA). […]

For experiment [1], the system named is GRP58 (protein disulfide-isomerase A3). In words: SPR screening against immobilized GRP58. It is filed as binding. To be noted: 100 nM synbody, Biacore T-100, CM5 amine coupling, 25°C immobilization, 90 s association, 240 s dissociation. The procedure:
The synbody (100nM concentration) was screened by Surface Plasmon Resonance (SPR) against immobilized AKT1 and GRP58 on a Biacore T-100 SPR. The synbody appeared to have high affinity for AKT1 and low affinity for GRP58 (Figure S2). To accurately determine the binding kinetics of the synbody-AKT1 complex, several concentrations of synbody were injected over a low-density surface of biotin-labeled AKT1 captured on a Neutratvidin SPR chip using a Biacore A-100.
SPR screening of the synbody against AKT1 and GRP58 was performed on a Biacore T-100 (GE Healthcare, Piscataway, NJ, USA). The series S sensor chip CM5, amine coupling reagents and HBS-EP were obtained from GE Healthcare. A standard amine immobilization protocol was performed at 25°C using NaHCO3 (10mM in 150mM NaCl, pH 4.5) as the immobilization buffer. The CM-5 dextran chip was activated by a 10 minute injection of a freshly prepared 1∶1 solution of 400 mM 1-ethyl-3-(3-dimethylaminopropyl)-carbodimide (EDC): 100 mM N-hydroxysuccimide (NHS) in water. The NHS-carboxy groups of the dextran surface were treated with a solution of AKT1 or GRP58 (25 µg/ml) in sodium acetate (pH 5.0) for 8 mins at a flow rate of 10 µl/min. Any residual active sites were then quenched by a 5 min pulse of ethylene diamine (1M, pH 8.5). […]

Bridge positions count the residues as written; N and C are the ends. Ends that are not written are not given here. I, II: the chains in the order shown. * marks the point of attachment. StBu = CC(C)(C)S*

Sequence of AKT1 (P31749 whole entry): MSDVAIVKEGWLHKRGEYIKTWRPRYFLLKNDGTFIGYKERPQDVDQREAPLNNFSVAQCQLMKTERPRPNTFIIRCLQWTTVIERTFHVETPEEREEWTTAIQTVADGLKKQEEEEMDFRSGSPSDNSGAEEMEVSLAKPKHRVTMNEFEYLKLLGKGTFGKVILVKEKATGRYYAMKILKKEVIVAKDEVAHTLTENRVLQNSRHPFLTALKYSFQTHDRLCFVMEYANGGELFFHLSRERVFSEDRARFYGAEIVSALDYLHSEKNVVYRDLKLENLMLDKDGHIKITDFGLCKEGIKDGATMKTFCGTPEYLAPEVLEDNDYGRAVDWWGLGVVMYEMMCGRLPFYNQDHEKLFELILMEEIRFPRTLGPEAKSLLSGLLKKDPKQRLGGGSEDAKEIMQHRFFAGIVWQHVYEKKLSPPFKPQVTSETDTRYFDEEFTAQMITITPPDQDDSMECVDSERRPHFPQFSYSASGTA

Take “I: AHKVVPQRQIRHAYNRYGSGKC(StBu)-NH2 / II: FRGWAHIFFGPHVIYRGGSG (amide I:21-II:C) [synbody]”: the “binding to AKT1 on protein array (top 10 proteins)” value at AKT1 is given as “twice in the top 10 proteins bound by the synbody”. Also, in experiment [1], the “affinity for GRP58 by SPR screening” value was “low affinity”.
